# From US20160282364A1, “ASSAY FOR INSULIN-DEGRADING ENZYME (IDE) INHIBITORS” (PRESIDENT AND FELLOWS OF HARVARD COLLEGE, priority 2013, published 2016)
# Assays:
# Assay in all cases: Small molecule-enzyme mutant complementation study
# Type in all cases: biochemical
# [1] = biological target: T1, hIDE A198Q (Homo sapiens, UniProt P14735, A198Q); details: A198Q vs hIDE WT, batch 1
# T1 construct: The reported N-His6-tagged human IDE42-1019 construct; made in house; host or cells: E. coli Rosetta 2 (DE3) pLysS
# Description: (§1) Protease assays with fluorogenic peptide substrates. […] All assay data points were obtained in duplicate.
# (§2) Site-directed mutagenesis, expression, and purification of human IDE. The reported N-His6-tagged human IDE42-1019 construct was introduced in the expression plasmid pTrcHis-A (Invitrogen) using primers for uracil-specific excision reactions (USER) by Taq (NEB) and Pfu polymerases (PfuTurbo CX®, Agilent). The IDE gene was amplified with the primers 5′-[…]-dU-[…] and 5′-[…] G-dU-[…] (underlined sequences represent overhangs, and italics highlight the PCR priming sequence). Similarly, the pTrcHis-A vector was amplified for USER cloning with the primers 5′-[…] TGA-dU-[…] CCC and 5′-[…]-dU-[…]. Mutant IDE constructs were generated by amplifying the full vector construct with USER cloning primers introducing a mutant overhang (Table 5).
# (§3) All PCR products were purified on microcentrifuge membrane columns (MinElute®, Qiagen) and quantified by UV absorbance (NanoDrop). Each fragment (0.2 pmol) was combined in a 10 μL reaction mixture containing 20 units DpnI (NEB), 0.75 units of USER mix (Endonuclease VIII and Uracil-DNA Glycosylase, NEB), 20 mM Tris-acetate, 50 mM potassium acetate, 10 mM magnesium acetate, 1 mM dithiothreitol at pH 7.9 (1× NEBuffer 4). The reactions were incubated at 37° C. for 45 min, followed by heating to 80° C. and slow cooling to 30° C. (0.2° C./s). The hybridized constructs were directly used for heat-shock transformation of chemically competent NEB turbo E. coli cells according to the manufacturer's instructions. Transformants were selected on carbenicillin LB agar, and isolated colonies were cultured overnight in 2 mL LB.
# (§4) The plasmid was extracted using a microcentrifuge membrane column kit (Miniprep®, Qiagen), and the sequence of genes and vector junctions were confirmed by Sanger sequencing (Table 6). The plasmid constructs were transformed by heat-shock into chemically-competent expression strain Rosetta 2 (DE3) pLysS E. coli cells (EMD Millipore), and selected on carbenicillin/chloramphenicol LB agar. Cells transformed with IDE pTrcHis A constructs were cultured overnight at 37° C. in 2 XYT media (31 g in 1 L) containing 100 μg/mL ampicillin and 34 μg/mL chloramphenicol. Expression of His6-tagged IDE proteins was induced when the culture measured OD600 ˜0.6 by addition of isopropyl-β-D-1-thiogalactopyranoside (IPTG) to 1 mM final concentration, incubated overnight at 37° C., followed by centrifugation at 10,000 g for 30 min at 4° C.
# (§5) Recombinant His6-tagged proteins were purified by Ni(II)-affinity chromatography (IMAC sepharose beads, GE Healthcare®) according to the manufacturer's instructions. The cell pellets were resuspended in pH 8.0 buffer containing 50 mM phosphate, 300 mM NaCl, 10 mM imidazole, 1% Triton X-100 and 1 mM tris(2-carboxyethyl)phosphine hydrochloride (TCEP), and were lysed by probe sonication for 4 min at 4° C., followed by clearing of cell debris by centrifugation at 10,000 g for 25 min at 4° C. The supernatant was incubated with Ni(II)-doped IMAC resin (2 mL) for 3 h at 4° C. The resin was washed twice with the cell resuspension/lysis buffer, and three times with pH 8.0 buffer containing 50 mM phosphate, 300 mM NaCl,50 mM imidazole and 1 mM TCEP. Elution was performed in 2 mL aliquots by raising the imidazole concentration to 250 mM and subsequently to 500 mM in the previous buffer. The fractions were combined and the buffer was exchanged to the recommended IDE buffer (R&D) using spin columns with 100 KDa molecular weight cut off membranes (Millipore). Protein yields were typically ˜10 μg/L, and >90% purity based on gel electrophoresis analysis (Coomassie stained).
# [2] = biological target: T2, hIDE A198T (Homo sapiens, UniProt P14735, A198T); details: A198T vs hIDE WT, batch 2
# T2 construct: The reported N-His6-tagged human IDE42-1019 construct; made in house; host or cells: E. coli Rosetta 2 (DE3) pLysS
# Description: as §1, §2, §3, §4, §5
# [3] = biological target: T3, hIDE A198Y (Homo sapiens, UniProt P14735, A198Y); details: A198Y vs hIDE WT, batch 2
# T3 construct: The reported N-His6-tagged human IDE42-1019 construct; made in house; host or cells: E. coli Rosetta 2 (DE3) pLysS
# Description: as §1, §2, §3, §4, §5
# [4] = biological target: T4, hIDE F202L (Homo sapiens, UniProt P14735, F202L); details: F202L vs hIDE WT, batch 1
# T4 construct: The reported N-His6-tagged human IDE42-1019 construct; made in house; host or cells: E. coli Rosetta 2 (DE3) pLysS
# Description: as §1, §2, §3, §4, §5
# [5] = biological target: T5, hIDE F202R (Homo sapiens, UniProt P14735, F202R); details: F202R vs hIDE WT, batch 2
# T5 construct: The reported N-His6-tagged human IDE42-1019 construct; made in house; host or cells: E. coli Rosetta 2 (DE3) pLysS
# Description: as §1, §2, §3, §4, §5
# [6] = biological target: T6, hIDE G361Q (Homo sapiens, UniProt P14735, G361Q); details: G361Q vs hIDE WT, batch 3
# T6 construct: The reported N-His6-tagged human IDE42-1019 construct was introduced in the expression plasmid pTrcHis-A; made in house; host or cells: E. coli Rosetta 2 (DE3) pLysS
# Description: as §1, §2, §3, §4, §5
# [7] = biological target: T7, hIDE I310R (Homo sapiens, UniProt P14735, I310R); details: I310R vs hIDE WT, batch 2
# T7 construct: The reported N-His6-tagged human IDE42-1019 construct; made in house; host or cells: E. coli Rosetta 2 (DE3) pLysS
# Description: as §1, §2, §3, §4, §5
# [8] = biological target: T8, hIDE I374M (Homo sapiens, UniProt P14735, I374M); details: I374M vs hIDE WT, batch 1
# T8 construct: The reported N-His6-tagged human IDE42-1019 construct was introduced in the expression plasmid pTrcHis-A; made in house; host or cells: E. coli Rosetta 2 (DE3) pLysS
# Description: as §1, §2, §3, §4, §5
# [9] = biological target: T9, hIDE K364A (Homo sapiens, UniProt P14735, K364A); details: K364A vs hIDE WT, batch 2
# T9 construct: The reported N-His6-tagged human IDE42-1019 construct was introduced in the expression plasmid pTrcHis-A; made in house; host or cells: E. coli Rosetta 2 (DE3) pLysS
# Description: as §1, §2, §3, §4, §5
# [10] = biological target: T10, hIDE V360Q (Homo sapiens, UniProt P14735, V360Q); details: V360Q vs hIDE WT, batch 1
# T10 construct: The reported N-His6-tagged human IDE42-1019 construct was introduced in the expression plasmid pTrcHis-A; made in house; host or cells: E. coli Rosetta 2 (DE3) pLysS
# Description: as §1, §2, §3, §4, §5
# [11] = biological target: T11, hIDE W199F (Homo sapiens, UniProt P14735, W199F); details: W199F vs hIDE WT, batch 2
# T11 construct: The reported N-His6-tagged human IDE42-1019 construct; made in house; host or cells: E. coli Rosetta 2 (DE3) pLysS
# Description: as §1, §2, §3, §4, §5
# [12] = biological target: T12, hIDE W199Y (Homo sapiens, UniProt P14735, W199Y); details: W199Y vs hIDE WT, batch 2
# T12 construct: The reported N-His6-tagged human IDE42-1019 construct; made in house; host or cells: E. coli Rosetta 2 (DE3) pLysS
# Description: as §1, §2, §3, §4, §5
# [13] = biological target: T13, hIDE Y314F (Homo sapiens, UniProt P14735, Y314F); details: Y314F vs hIDE WT, batch 2
# T13 construct: The reported N-His6-tagged human IDE42-1019 construct; made in house; host or cells: E. coli Rosetta 2 (DE3) pLysS
# Description: as §1, §2, §3, §4, §5
# T10 sequence (P14735 42-1019 V360Q): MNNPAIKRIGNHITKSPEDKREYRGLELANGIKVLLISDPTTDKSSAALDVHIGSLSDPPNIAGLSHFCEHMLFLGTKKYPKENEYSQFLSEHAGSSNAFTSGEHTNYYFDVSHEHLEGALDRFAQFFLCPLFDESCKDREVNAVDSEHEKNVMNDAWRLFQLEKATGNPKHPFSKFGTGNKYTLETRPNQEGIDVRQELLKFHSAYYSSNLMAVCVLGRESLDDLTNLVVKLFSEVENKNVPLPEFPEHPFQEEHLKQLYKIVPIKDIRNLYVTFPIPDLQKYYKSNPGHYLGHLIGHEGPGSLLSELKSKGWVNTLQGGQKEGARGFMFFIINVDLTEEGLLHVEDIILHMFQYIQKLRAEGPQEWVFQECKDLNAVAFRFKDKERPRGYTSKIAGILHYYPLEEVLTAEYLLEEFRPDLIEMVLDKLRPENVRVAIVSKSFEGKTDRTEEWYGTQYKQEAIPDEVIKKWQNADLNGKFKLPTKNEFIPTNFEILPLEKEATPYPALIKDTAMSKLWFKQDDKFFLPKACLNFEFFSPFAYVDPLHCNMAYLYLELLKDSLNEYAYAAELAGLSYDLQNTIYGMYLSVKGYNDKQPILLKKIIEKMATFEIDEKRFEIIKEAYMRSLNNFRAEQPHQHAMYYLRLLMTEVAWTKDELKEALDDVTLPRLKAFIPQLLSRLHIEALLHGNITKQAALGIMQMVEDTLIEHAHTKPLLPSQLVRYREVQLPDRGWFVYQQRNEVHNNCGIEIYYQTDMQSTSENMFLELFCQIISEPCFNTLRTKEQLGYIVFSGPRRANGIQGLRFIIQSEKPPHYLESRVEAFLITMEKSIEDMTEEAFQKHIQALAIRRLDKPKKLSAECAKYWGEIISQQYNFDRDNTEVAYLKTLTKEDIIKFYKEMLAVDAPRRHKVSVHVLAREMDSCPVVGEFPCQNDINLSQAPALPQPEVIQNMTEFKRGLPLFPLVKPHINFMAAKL
# T6 sequence (P14735 42-1019 G361Q): as the sequence (P14735 42-1019 V360Q) above, with Q319V, G320Q counted along it
# T2 sequence (P14735 42-1019 A198T): as the sequence (P14735 42-1019 V360Q) above, with A157T, Q319V counted along it
# T7 sequence (P14735 42-1019 I310R): as the sequence (P14735 42-1019 V360Q) above, with I269R, Q319V counted along it
# T4 sequence (P14735 42-1019 F202L): as the sequence (P14735 42-1019 V360Q) above, with F161L, Q319V counted along it
# T5 sequence (P14735 42-1019 F202R): as the sequence (P14735 42-1019 V360Q) above, with F161R, Q319V counted along it
# T13 sequence (P14735 42-1019 Y314F): as the sequence (P14735 42-1019 V360Q) above, with Y273F, Q319V counted along it
# T9 sequence (P14735 42-1019 K364A): as the sequence (P14735 42-1019 V360Q) above, with Q319V, K323A counted along it
# T1 sequence (P14735 42-1019 A198Q): as the sequence (P14735 42-1019 V360Q) above, with A157Q, Q319V counted along it
# T11 sequence (P14735 42-1019 W199F): as the sequence (P14735 42-1019 V360Q) above, with W158F, Q319V counted along it
# T12 sequence (P14735 42-1019 W199Y): as the sequence (P14735 42-1019 V360Q) above, with W158Y, Q319V counted along it
# T3 sequence (P14735 42-1019 A198Y): as the sequence (P14735 42-1019 V360Q) above, with A157Y, Q319V counted along it
# T8 sequence (P14735 42-1019 I374M): as the sequence (P14735 42-1019 V360Q) above, with Q319V, I333M counted along it
compound,measurement,setting,value
NC(=O)CCC1NC(=O)C=CC(=O)NC(C(N)=O)CCCCNC(=O)C(Cc2ccc(C(=O)c3ccccc3)cc2)NC(=O)C(CC2CCCCC2)NC1=O (stereo not shown) [Compound 6b],IC50 shift,[1],2.3 fold
same,IC50 shift,[2],16 fold
same,IC50 shift,[3],0.5 fold
same,IC50 shift,[4],1.7 fold
same,IC50 shift,[5],3.7 fold
same,IC50 shift,[6],0.8 fold
same,IC50 shift,[7],0.8 fold
same,IC50 shift,[8],0.7 fold
same,IC50 shift,[9],26 fold
same,IC50 shift,[10],1.5 fold
same,IC50 shift,[11],3.0 fold
same,IC50 shift,[12],1.8 fold
same,IC50 shift,[13],1.2 fold
